Test results taken from EPA's ToxValDB 9.5.
In brackets after ≈: the same amount, converted by molar mass.

Legend:
Anas platyrhynchos = conditions: oral
Rattus norvegicus = conditions: for LD50: acute, mortality
Canidae = conditions: for NOAEL: oral
Ovis sp. = conditions: subchronic; duration: 8 weeks; oral; diet; no effects
Pontoscolex corethrurus = conditions: acute
Homo sapiens = conditions: clinical, oral
Oncorhynchus mykiss = conditions: acute; duration: 96 hours; mortality
[1] = for NOAEL: subchronic, duration: 90 days
Gallus gallus = conditions: oral, diet
Sus scrofa = conditions: short-term, duration: 28 days, oral, diet, Not specified, no effects
Bovidae = conditions: for LEL: no effects
Daphnia magna = conditions: acute; mortality
Bibionidae = conditions: chronic/long-term; other
Danio rerio = conditions: acute; mortality
[2] = reproduction developmental, reproduction

With `NC(Cc1ncn[nH]1)C(=O)O` (configuration not stated) [1,2,4-Triazole-3-alanine] as the compound, how does the NOAEL (Oryctolagus sp.; developmental, development) read?
The NOAEL was 30 mg/kg-day.

And the LC50 (Anas platyrhynchos; short-term, duration: 5 days, feed, mortality)?
Its LC50 is > 1340 mg/kg-day.

What about the LD50 (Rattus norvegicus; oral) of the same compound?
Its LD50 is > 5000 mg/kg-day.

What about the NOAEL (Rattus norvegicus; chronic) of the same compound?
The NOAEL was 100 mg/kg-day.

And the NOAEL (Rattus norvegicus; developmental, development)?
Its NOAEL is 100 mg/kg-day.

What does the source list for `CCS(=O)(=O)c1cccnc1S(=O)(=O)NC(=O)Nc1nc(OC)cc(OC)n1` [Rimsulfuron]?
NOAEL (Oryctolagus sp.; reproduction developmental, mortality): 170 mg/kg-day; LD50 (Anas platyrhynchos; acute, unspecified, mortality): > 2000 mg/kg-day; NOEC (Anas platyrhynchos; reproductive, feed): 117 mg/kg-day; NOAEL (Canidae; subchronic, duration: 90 days, Dog Other, body weight): 9.63 mg/kg-day; LD50 (Rattus norvegicus; oral): > 5000 mg/kg-day; NOAEL (Rattus norvegicus; chronic, duration: 2 years, oral, body weight): 11.8 mg/kg-day; NOAEL (Rattus norvegicus; reproduction developmental, body weight): 165 mg/kg-day

For `COc1cc2c(c3oc4cccc(O)c4c(=O)c13)[C@@H]1C=CO[C@@H]1O2` [Sterigmatocystin], which LEL (Ovis sp.) is on record?
The LEL was 0.3 mg/kg-day.

With `CCCC/C=C\CCO` [3-Octen-1-ol, (3Z)-] as the compound, how does the LC50 (Pontoscolex corethrurus; mortality) read?
The LC50 was 194 mg/kg.

With `CCOP(=O)=O.CCOP(=O)=O.CCOP(=O)=O.[Al+3]` [Fosetyl aluminum] as the compound, how does the NOAEL (Rattus norvegicus; short-term, histopathology: nonneoplastic) read?
Its NOAEL is 500 mg/kg-day.

And the NOEC (Colinus virginianus; [2])?
Its NOEC is 216 mg/kg-day.

For `CCc1nccnc1C(C)=O` [1-(3-Ethylpyrazinyl)ethan-1-one], which LC50 (Pontoscolex corethrurus; mortality) is on record?
Its LC50 is 360 mg/kg.

For `OC[C@@H](O)[C@@H](O)CO` [Erythritol], which NOAEL (Homo sapiens; duration: 27 months, drinking water, clinical signs) is on record?
The NOAEL was 710 mg/kg-day.

What does the source list for `CBr` [Methyl bromide]?
LC50 (Oncorhynchus mykiss): 3.9 µg/mL; NOAEL (Canidae; chronic, duration: 1 years, Dog Other): 0.27 mg/kg-day; NOAEL (Canidae; chronic, duration: 1 years, Dog Other, clinical chemistry): 0.13 mg/kg-day; LD50 (Rattus norvegicus; oral): 104 mg/kg; NOAEL (Rattus norvegicus; [2]): 90 mg/kg-day; LD50 (Colinus virginianus; acute, oral, mortality): 73 mg/kg

With `Cc1cc(SC(=O)CC(C)C)c(C)o1` [2,5-Dimethyl-3-thioisovalerylfuran] as the compound, how does the NOAEL [1] read?
The NOAEL was 0.73 mg/kg-day.

And the NOAEL (Rattus norvegicus; subchronic, duration: 90 days)?
Its NOAEL is 0.73 mg/kg-day.

Which LEL (Homo sapiens; duration: 12 weeks, neurology) does the source give for `CCCCCc1cc(O)c2c(c1)OC(C)(C)[C@@H]1CCC(C)=C[C@@H]21` [Tetrahydrocannabinol] here?
The LEL was 2.5 mg/day.

What about the “LOAEL (mg/person-day)” value (Homo sapiens; capsule, other) of the same compound?
Its value is 2.5.

For `O=C(O)CC(O)C(=O)O` (configuration not stated) [Malic acid], which LEL (Gallus gallus; short-term, duration: 21 days, food consumption) is on record?
The LEL was 20000 mg/kg-day.

And the LEL (Sus scrofa; M/F)?
The LEL was 12000 mg/kg-day.

What about the LEL (Bovidae; subchronic, oral, diet) of the same compound?
Its LEL is 23000 mg/kg-day.

What about the LEL (Canidae; chronic, duration: 104 weeks, M/F, Beagle, no effects) of the same compound?
Its LEL is 50000 mg/kg-day.

Which NOAEC [1, 2] does the source give for `CC(C)C` [Isobutane] here?
Its NOAEC is 7.12 mg/m3.

Which results are given for `ClC1=C(Cl)[C@]2(Cl)[C@@H]3[C@@H](Cl)[C@H]4O[C@H]4[C@@H]3C1(Cl)C2(Cl)Cl` [Heptachlor epoxide B]?
NOAEL (Gallus gallus; chronic, duration: 25 weeks, M/F, development): 0.002 mg/kg-day; NOAEL (Bovidae; subchronic, oral, diet, F): 1.5 mg/kg-day; NOAEL (Canidae; chronic, duration: 2 years, diet, M/F, Beagle, clinical chemistry): 0.025 mg/kg-day

Which LC50 (Daphnia magna) does the source give for `Cc1csc(C(C)C)n1` [2-Isopropyl-4-methylthiazole] here?
The LC50 was 9 µg/mL (≈ 63.7 µM).

What about the LC50 (Pontoscolex corethrurus; mortality) of the same compound?
Its LC50 is 194 mg/kg.

With `Cl.N/C(=N\N=C\c1ccc(Cl)cc1)N/N=C/c1ccc(Cl)cc1` [Robenidine hydrochloride] as the compound, how does the NOEC ([1]; repeat dose other, other) read?
The NOEC was > 1.8 mg/kg-day.

And the NOAEL (Oryctolagus sp.; reproduction developmental, duration: 84 days, oral, diet, New Zealand, reproduction)?
The NOAEL was 11 mg/kg-day.

What about the LEL (Oryctolagus sp.; subchronic, duration: 48 days, oral, diet, no effects) of the same compound?
The LEL was 500 mg/kg-day.

What about the NOEC (Bibionidae) of the same compound?
The NOEC was 50 mg/kg.

What about the LEL (Gallus gallus; subchronic, duration: 9 weeks, M/F, no effects) of the same compound?
The LEL was 225 mg/kg-day.

What about the LEL (Gallus gallus; subchronic, duration: 35 days, M/F, Chicken, no effects) of the same compound?
Its LEL is 82.5 mg/kg-day.

And the LEL (Sus scrofa)?
Its LEL is 120 mg/kg-day.

And the LEL (Bovidae; short-term, duration: 28 days)?
The LEL was 60 mg/kg-day.

What about the LC50 (Pontoscolex corethrurus; duration: 14 days, body weight) of the same compound?
The LC50 was > 1000 mg/kg.

What about the NOEL (Canidae; subchronic, duration: 90 days, Dog Other, organ weight) of the same compound?
The NOEL was 7.5 mg/kg-day.

What about the LC50 (Danio rerio) of the same compound?
The LC50 was 0.036 µg/mL.

With `CSCSSC` [2,3,5-Trithiahexane] as the compound, how does the NOAEL ([1]; oral) read?
Its NOAEL is 0.23 mg/kg-day.

And the NOEL (Rattus norvegicus; subchronic, duration: 13 weeks, oral, diet)?
The NOEL was 0.3 mg/kg-day.

What about the NOAEL (Rattus norvegicus; subchronic, duration: 90 days, oral) of the same compound?
The NOAEL was 0.23 mg/kg-day.
